Consider five molecules from paper PMC9247344 (ACS infectious diseases, 2021).

Data set [1] concerns P. falciparum asexual blood stages (PfABS), strain W2. It counts as cell-based, Plasmodium falciparum. The following applies: for Selectivity Index: PfABS versus HepG2 cytotoxicity; for EC50: Plasmodium falciparum, W2, read-out: PfABS pEC50 (±S.D.) (converted).
Data set [2] deals with HepG2 human hepatocellular carcinoma cell line. The experiment in a line: Cytotoxicity against HepG2. It counts as cell-based. Conditions: HepG2, 72 h; mean (±S.D.), n≥3; <5.00 = inactive at all concentrations tested.
The nature of data set [3]: Cytotoxicity against HepG2. Conditions: human, HepG2 cells. The format is cell-based, human.

Consider `CC1CCC2C(C)C(CCCO)OC3OC4(C)CCC1C32OO4` (centres unmarked) [Compound 6a], for which the “Selectivity Index” value in data set [1] is recorded as above 891. The “Cytotoxicity pCC50 (±S.D.)” value in data set [2] is listed as < 5.00 (0.00).
`C[C@H]1[C@@H](O)O[C@@H]2O[C@@]3(C)CC[C@H]4[C@H](C)CC[C@@H]1[C@@]24OO3` [DHA, dihydroartemisinin]: in data set [1], the “Selectivity Index” value is given as above 9770 and the EC50 was 0.871 nM. In addition, the cytotoxic concentration (CC50) (in general, the concentration giving 50% cytotoxicity) at 72 h in data set [3] was above 8510 nM.
In the case of `C[C@@H]1CC[C@H]2[C@@H](C)C(=O)O[C@@H]3O[C@@]4(C)CC[C@@H]1[C@]32OO4` [artemisinin], in data set [1], the “Selectivity Index” value is given as above 2950 and the EC50 is 3.39 nM. Moreover, the CC50 at 72 h in data set [3] was above 10000 nM.
Take `C[C@H]1[C@H](OC(=O)CCC(=O)O)O[C@@H]2O[C@@]3(C)CC[C@H]4[C@H](C)CC[C@@H]1[C@@]24OO3` [artesunate]: in data set [1], the “Selectivity Index” value is 3160 and the EC50 is 1.12 nM. The same molecule gave a CC50 at 72 h in data set [3] of 3550 nM.
In the case of `COc1ccc(C[C@H](N)C(=O)N[C@H]2[C@@H](O)[C@H](n3cnc4c(N(C)C)ncnc43)O[C@@H]2CO)cc1` [puromycin], in data set [1], the “Selectivity Index” value worked out at 8.71 and the EC50 is 46.8 nM. It took 407 nM to reach half-maximal cytotoxicity in data set [3] (CC50 at 72 h).
